# Experimental data: patent publication US9670549B2, “Gene expression signatures of neoplasm responsiveness to therapy” (The United States of America, as represented by the …, priority 2011, dated 2017)
# Key:
# [1] = system: cleaved PARP, BCL-xL, Survivin; assay: Western blot of apoptosis proteins (U266, L363 lysates); assay type: cell-based, human; conditions: U266 or L363 lysates, 48 hours
# Procedure: In sequential experiments, the first agent listed was added 24 hours prior to the addition of the second agent.
# Western blot of control, single agent, and combination treated (D) L363 or (E) U266 cells at 48 hours.
# HDAC1 = HDAC1 (Homo sapiens, UniProt Q13547); conditions: cited from earlier work
# HDAC2 = HDAC2 (Homo sapiens, UniProt Q92769); conditions: cited from earlier work
# L363 cells = assay: L363 cell viability after triapine and/or sirolimus; conditions: L363, 48 hour treatment
# Procedure: (§1) L363 cell viability after 48 hour treatment with triapine and/or sirolimus. Significance between treatments was determined by repeated measures ANOVA with the Bonferroni correction.
# RRM2, γH2AX = assay: Western blot of L363 lysates for RRM2 and DNA damage marker; conditions: L363, 48 hours; sirolimus 10 nM, entinostat 0.5 μM, Triapine 1 μM
# Procedure: as §1
# Sequence of HDAC1 (Q13547 whole entry): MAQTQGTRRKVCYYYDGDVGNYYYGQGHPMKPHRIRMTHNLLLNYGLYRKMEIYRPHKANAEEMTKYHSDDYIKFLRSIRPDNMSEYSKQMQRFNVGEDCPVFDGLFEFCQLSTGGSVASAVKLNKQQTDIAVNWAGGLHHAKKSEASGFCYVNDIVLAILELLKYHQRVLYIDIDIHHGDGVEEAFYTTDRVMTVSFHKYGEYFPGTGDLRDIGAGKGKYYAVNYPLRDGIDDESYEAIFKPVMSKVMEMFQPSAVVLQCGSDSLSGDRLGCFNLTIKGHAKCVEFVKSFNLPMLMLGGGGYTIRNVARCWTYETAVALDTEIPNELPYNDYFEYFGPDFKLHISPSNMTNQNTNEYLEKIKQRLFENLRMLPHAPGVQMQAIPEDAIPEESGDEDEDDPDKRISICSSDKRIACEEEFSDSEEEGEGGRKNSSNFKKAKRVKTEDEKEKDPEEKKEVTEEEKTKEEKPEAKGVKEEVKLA
# Sequence of HDAC2 (Q92769 whole entry): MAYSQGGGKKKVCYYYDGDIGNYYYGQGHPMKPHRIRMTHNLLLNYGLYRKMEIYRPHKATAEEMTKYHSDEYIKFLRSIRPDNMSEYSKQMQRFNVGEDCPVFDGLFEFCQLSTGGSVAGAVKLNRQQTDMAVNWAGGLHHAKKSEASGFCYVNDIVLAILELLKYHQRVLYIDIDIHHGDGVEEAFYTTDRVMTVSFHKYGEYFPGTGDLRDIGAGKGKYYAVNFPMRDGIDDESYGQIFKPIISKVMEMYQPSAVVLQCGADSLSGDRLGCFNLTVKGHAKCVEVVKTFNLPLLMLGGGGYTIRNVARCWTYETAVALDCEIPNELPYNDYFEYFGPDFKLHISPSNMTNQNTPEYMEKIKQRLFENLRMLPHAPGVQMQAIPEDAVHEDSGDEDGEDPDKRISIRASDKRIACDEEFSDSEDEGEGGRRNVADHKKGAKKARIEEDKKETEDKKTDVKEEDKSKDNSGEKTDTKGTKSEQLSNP
Compound,PARP cleavage [1],activity against HDAC1 (HDAC1),affinity for HDAC1 (HDAC1),activity for HDAC2 (HDAC2),MM cell viability (L363 cells),"DNA damage marker γH2AX (RRM2, γH2AX)"
Nc1ccccc1NC(=O)c1ccc(CNC(=O)OCc2cccnc2)cc1 [entinostat],observed,strong activity,high affinity,weak activity,,
NC(=S)N/N=C/c1ncccc1N [triapine],,,,,inhibited MM cell viability,increased yH2AX
